Experimental data as given in publication PMC9200688, “The production and biochemical characterization of α-carbonic anhydrase from Lactobacillus rhamnosus GG” (Applied Microbiology and Biotechnology, 2022).
“Also recorded” adds a separate entry of the source. Like-named read-outs stand apart in the source and are kept apart here.

What was measured:
[1] = biological target: T1, α-carbonic anhydrase of L. rhamnosus (LrhCA) (Lacticaseibacillus rhamnosus, UniProt A0A809N5C7); test: Sulfonamide inhibition of LrhCA, stopped-flow CO2 hydrase assay; type: biochemical, Lactobacillus rhamnosus GG
T1 sequence (A0A809N5C7 1-215): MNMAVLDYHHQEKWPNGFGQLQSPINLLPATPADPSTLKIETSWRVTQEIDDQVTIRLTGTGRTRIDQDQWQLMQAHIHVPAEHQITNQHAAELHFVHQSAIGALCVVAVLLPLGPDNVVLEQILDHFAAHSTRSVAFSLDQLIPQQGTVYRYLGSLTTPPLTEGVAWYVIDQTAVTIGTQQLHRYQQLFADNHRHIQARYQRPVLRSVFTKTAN

[2] = system: L. rhamnosus GG; test: In vitro inhibition assay with acetazolamide: growth of L. rhamnosus GG culture (OD595); conditions: AAZ 1 nM to 10 mM in MRS, 37 °C, anaerobic and aerobic, 96 h, OD595 at 0, 24, 48, 72, 96 h
[3] = biological target: hCA I (human carbonic anhydrase isozyme I); conditions: human recombinant isozyme; stopped-flow CO2 hydrase assay; data published previously, ref Supuran [2008]; cited from earlier work
[4] = stopped-flow CO2 hydrase assay, mean from three different assays, errors 5–10%, recombinant LrhCA, 15 min preincubation at room temperature, read-out: Ki LrhCA

Row | Molecule | Ki ([1]; Ki LrhCA) | also measured
1 | NS(=O)(=O)c1ccc(CCNS(=O)(=O)c2ccc([N+](=O)[O-])cc2CO)cc1 | – | Ki [1, 4]: 0.378 µM
2 | Nc1ccc(S(=O)(=O)Nc2nnc(S(N)(=O)=O)s2)cc1 | 0.319 µM | –
3 | 4-(2-hydroxymethyl-4-nitrophenyl-sulfonamido)ethylbenzenesulfonamide [compound 24] | – | Ki [1, 4]: 0.403 µM
4 | 4-(4-sulfanilyl-aminomethyl)-benzenesulfonamide [compound 23] | – | Ki [1, 4]: 0.487 µM
5 | CC(=O)Nc1nnc(S(N)(=O)=O)s1 [AAZ, acetazolamide] | – | Effect of acetazolamide on cell growth of L. rhamnosus GG (OD595) [2]: very little or no inhibitory effect on cell growth; also recorded: no significant effect on the growth; Effect of acetazolamide on cell growth of L. rhamnosus GG (OD595) ([2]; listed as Acetazolamide): marginal inhibitory effect on cell growth; Effect of acetazolamide on cell growth of L. rhamnosus GG (OD595) ([2]; listed as acetazolamide): no significant effect on cell growth
6 | CCN[C@H]1CN(CCCOC)S(=O)(=O)c2sc(S(N)(=O)=O)cc21 [BRZ, brinzolamide, reference compound] | 0.433 µM | –
7 | NS(=O)(=O)c1nnc(NS(=O)(=O)c2ccccc2)s1 [BZA, benzolamide, reference compound] | 0.387 µM | –
8 | NS(=O)(=O)c1cc2c(cc1Cl)NCNS2(=O)=O [HCT, hydrochlorothiazide, reference compound] | – | Ki [1, 4]: > 10 µM
9 | NS(=O)(=O)c1ccc(S(=O)(=O)Nc2cccc3c(Cl)c[nH]c23)cc1 [IND, indisulam, reference compound] | > 10 µM | –
10 | CC(=O)/N=c1/sc(S(N)(=O)=O)nn1C [MZA, methazolamide, reference compound] | 0.837 µM | –
11 | O=C1NS(=O)(=O)c2ccccc21 [SAC, saccharin, reference compound] | > 10 µM | Ki [3]: 18.5 µM
12 | NS(=O)(=O)c1ccc(N2CCCCS2(=O)=O)cc1 [SLT, reference compound] | 9.31 µM | –
13 | CC1(C)O[C@@H]2[C@@H](CO[C@@]3(COS(N)(=O)=O)OC(C)(C)O[C@@H]23)O1 [TPM, topiramate, reference compound] | 0.508 µM | –
14 | Cc1onc(-c2ccccc2)c1-c1ccc(S(N)(=O)=O)cc1 [VLX, valdecoxib, reference compound] | > 10 µM | –
15 | NS(=O)(=O)Cc1noc2ccccc12 [ZNS, reference compound] | 8.95 µM | –
16 | NS(=O)(=O)c1cccc(S(N)(=O)=O)c1 [compound 3] | – | Ki [1, 4]: 3.02 µM; Ki [3]: 0.079 µM
17 | Cc1ccc(S(N)(=O)=O)cc1 [compound 4] | 5.6 µM | Ki [3]: 78.5 µM
18 | NCc1ccc(S(N)(=O)=O)cc1 [compound 5, 4-aminomethyl-benzenesulfonamides] | – | Ki [1, 4]: > 10 µM
19 | Nc1ccc(S(N)(=O)=O)cc1Cl [compound 8] | 8.98 µM | –
20 | Nc1ccc(S(N)(=O)=O)cc1Br [compound 9, 3-bromo-4-amino-benzenesulfonamide] | > 10 µM | –
21 | NS(=O)(=O)c1cc(Cl)cc(Cl)c1O [compound 10] | – | Ki [1, 4]: 5.03 µM
22 | Nc1cc(C(F)(F)F)c(S(N)(=O)=O)cc1S(N)(=O)=O [compound 11] | 7.56 µM | –
23 | Nc1cc(Cl)c(S(N)(=O)=O)cc1S(N)(=O)=O [compound 12] | 7.93 µM | –
24 | Nc1nnc(S(N)(=O)=O)s1 [compound 13, 5-amino-1,3,4-thiadizole-2-sulfonamide] | 0.866 µM | –
25 | NS(=O)(=O)c1ccc(CO)cc1 [compound 16] | 6.01 µM | –
26 | NS(=O)(=O)c1ccc(C(=O)O)cc1 [compound 18] | 2.71 µM | –
27 | Nc1nccc(Nc2ccc(S(N)(=O)=O)cc2)n1 [compound 19] | 4.41 µM | –
28 | Nc1ccc(S(=O)(=O)Nc2ccc(S(N)(=O)=O)cc2)cc1 [compound 22] | – | Ki [1, 4]: 0.559 µM
